Test results: patent US20240343717A1, “MICROBIOCIDAL PYRAZOLE DERIVATIVES” (SYNGENTA CROP PROTECTION AG, priority 2021, published 2024)

Columns and labels:
Alternaria solani = Alternaria solani / tomato / leaf disc (early blight); assay type: in vivo; conditions: foliar, tomato leaf disks, sprayed 2 days before inoculation, compared to untreated control
Description: Example B1: Alternaria solani/Tomato/Leaf Disc (Early Blight) Tomato leaf disks cv. Baby are placed on agar in multiwell plates (24-well format) and sprayed with the formulated test compound diluted in water. The leaf disks are inoculated with a spore suspension of the fungus 2 days after application. The inoculated leaf disks are incubated at 23° C./21° C.

[1] = test system: Mycosphaerella graminicola (Septoria tritici); experiment: Mycosphaerella graminicola (Septoria tritici) / liquid culture (Septoria blotch); assay type: cell-based; conditions: Zymoseptoria tritici, growth inhibition photometrically 4-5 days after application, read-out: control of Mycosphaerella graminicola
Procedure, shortened: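 Conidia suspended in potato dextrose broth and added to test compound supplied in DMSO in 96-well plates. Incubated at 24 °C, and growth inhibition read photometrically 4-5 days after application.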

[2] = test system: Mycosphaerella arachidis (Cercospora arachidicola); experiment: Mycosphaerella arachidis (Cercospora arachidicola) / liquid culture (early leaf spot); assay type: cell-based; conditions: growth inhibition photometrically 4-5 days after application, read-out: control of Mycosphaerella arachidis
Procedure, shortened: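 Spores taken straight from cryostorage are suspended in potato dextrose broth and added to test compound in DMSO. Plates are incubated at 24° C. Growth inhibition is scored photometrically 4-5 days after application.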

[3] = test system: Phaeosphaeria nodorum (Septoria nodorum); experiment: Phaeosphaeria nodorum (Septoria nodorum) / wheat / leaf disc preventative (glume blotch); assay type: in vivo; conditions: Parastagonospora nodorum, foliar, wheat leaf segments, inoculated 2 days after application
Procedure, shortened: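 Wheat cv. Kanzler leaf segments on agar sprayed preventatively with formulated compound diluted in water, then inoculated with spore suspension 2 days after application. Incubated at 20° C, 75% rh, 12 h light/12 h dark; percent disease control versus untreated scored 5-7 days after application.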

Pyrenophora teres = Pyrenophora teres / barley / leaf disc preventative (net blotch); assay type: in vivo; conditions: foliar, barley leaf segments, inoculated 2 days after application
Procedure, shortened: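 Barley cv. Hasso leaf segments on agar sprayed with formulated compound, inoculated with spores 2 days later. Incubated at 20 °C, 65% rh, 12 h light/dark; disease control versus untreated assessed 5–7 days after application.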

[4] = test system: Glomerella lagenarium (Colletotrichum lagenarium); experiment: Glomerella lagenarium (Colletotrichum lagenarium) / liquid culture (anthracnose); assay type: cell-based; conditions: Colletotrichum orbiculare, growth inhibition photometrically 3-4 days after application, read-out: control of Glomerella lagenarium
Procedure, shortened: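 Cryo-stored conidia in potato dextrose broth were added to test compound in DMSO. Plates were incubated at 24° C, and growth inhibition was read photometrically 3-4 days after application.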

Sclerotinia sclerotiorum = Sclerotinia sclerotiorum / liquid culture (cottony rot); assay type: cell-based; conditions: growth inhibition photometrically 3-4 days after application, read-out: control of Sclerotinia sclerotiorum
Description: Example B15: Sclerotinia sclerotiorum/Liquid Culture (Cottony Rot) Mycelia fragments of a newly grown liquid culture of the fungus are directly mixed into nutrient broth (PDB potato dextrose broth). After placing a (DMSO) solution of test compound into a microtiter plate (96-well format) the nutrient broth containing the fungal material is added. The test plates are incubated at 24° C. and the inhibition of growth is determined photometrically 3-4 days after application.

Fusarium culmorum [5] = experiment: microbe, parasite or virus in culture; assay type: cell-based; conditions: read-out: control of Fusarium culmorum
[6] = test system: Botryotinia fuckeliana (Botrytis cinerea); experiment: Botryotinia fuckeliana (Botrytis cinerea) / liquid culture (gray mould); assay type: cell-based; conditions: growth inhibition photometrically 3-4 days after application, read-out: control of Botryotinia fuckeliana
Procedure, shortened: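 Conidia suspended in Vogels broth and added to compound dispensed from DMSO. Incubated at 24°C, with growth inhibition measured photometrically 3–4 days later.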

[7] = test system: Blumeria graminis f. sp. tritici (Erysiphe graminis f. sp. tritici); experiment: Blumeria graminis f. sp. tritici / wheat / leaf disc preventative (powdery mildew on wheat); assay type: in vivo; conditions: foliar, wheat leaf segments, inoculated 1 day after application
Procedure, shortened: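 Wheat cv. Kanzler leaf segments on agar sprayed with formulated compound in water, inoculated 1 day later by shaking mildew-infected plants overhead. Incubated at 20° C, 60% rh, 24 h dark then 12 h light/12 h dark. Percent disease control versus untreated scored 6-8 days after application.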

Fusarium culmorum [8] = experiment: whole plant or invertebrate; assay type: in vivo; conditions: in Triticum aestivum, read-out: control of Fusarium culmorum
[9] = test system: Monographella nivalis (Microdochium nivale); experiment: Monographella nivalis (Microdochium nivale) / liquid culture (foot rot cereals); assay type: cell-based; conditions: growth inhibition photometrically 4-5 days after application, read-out: control of Monographella nivalis
Procedure, shortened: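 Fungal conidia mixed directly into potato dextrose broth and added to test compound delivered in DMSO. Incubated at 24° C; growth inhibition read photometrically 4-5 days after application.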

[10] = test system: Gibberella zeae (Fusarium graminearum); experiment: whole plant or invertebrate; assay type: in vivo; conditions: in Triticum aestivum, read-out: control of Gibberella zeae

Structure (SMILES) | pest or weed control at 200 ppm (Alternaria solani) [%] | inhibition of growth at 20 ppm [1] [%] | inhibition of growth at 20 ppm [2] [%] | pest or weed control at 200 ppm [3] [%] | pest or weed control at 200 ppm (Pyrenophora teres) [%] | inhibition of growth at 20 ppm [4] [%] | inhibition of growth at 20 ppm (Sclerotinia sclerotiorum) [%] | inhibition of growth at 20 ppm (Fusarium culmorum [5]) [%] | inhibition of growth at 20 ppm [6] [%] | pest or weed control at 200 ppm [7] [%] | pest or weed control at 200 ppm (Fusarium culmorum [8]) [%] | inhibition of growth at 20 ppm [9] [%] | pest or weed control at 200 ppm [10] [%] | melting point [°C]
Cn1cc([C@@](C)(CNC(=O)c2cc(-c3ccc(F)cc3F)on2)c2cccc(Cl)n2)cn1 [Compound P-29, N-[(2S)-2-(6-chloro-2-pyridyl)-2-(1-methylpyrazol-4-yl)propyl]-5-(2,4-difluorophenyl) isoxazole-3-carboxamide] | ≥ 80 | ≥ 80 | ≥ 80 | ≥ 80 | ≥ 80 | ≥ 80 | ≥ 80 | ≥ 80 | ≥ 80 | ≥ 80 | ≥ 80 | ≥ 80 | – | –
Cc1cccc(C(C)(CNC(=O)c2cc(-c3ccc(F)cc3F)on2)c2cnn(C)c2Cl)n1 (stereo not shown) [Compound P-73, N-[2-(5-chloro-1-methyl-pyrazol-4-yl)-2-(6-methyl-2-pyridyl)propyl]-5-(2,4-difluorophenyl) isoxazole-3-carboxamide] | ≥ 80 | ≥ 80 | ≥ 80 | ≥ 80 | ≥ 80 | ≥ 80 | ≥ 80 | ≥ 80 | ≥ 80 | ≥ 80 | ≥ 80 | ≥ 80 | ≥ 80 | –
Cc1cccc(C(C)(CNC(=O)c2nnc(-c3ccc(F)cc3F)s2)c2cnn(C)c2Cl)n1 (stereo not shown) [Compound P-82, N-[2-(5-chloro-1-methyl-pyrazol-4-yl)-2-(6-methyl-2-pyridyl)propyl]-5-(2,4-difluorophenyl)-1,3,4-thiadiazole-2-carboxamide] | ≥ 80 | ≥ 80 | ≥ 80 | ≥ 80 | ≥ 80 | ≥ 80 | ≥ 80 | ≥ 80 | ≥ 80 | ≥ 80 | – | ≥ 80 | ≥ 80 | –
CCC(CNC(=O)c1cc(-c2ccc(F)cc2F)on1)(c1cnn(C)c1)c1cccc(Cl)n1 (stereo not shown) [Compound P-31, N-[2-(6-chloro-2-pyridyl)-2-(1-methylpyrazol-4-yl)butyl]-5-(2,4-difluorophenyl) isoxazole-3-carboxamide] | ≥ 80 | ≥ 80 | ≥ 80 | ≥ 80 | ≥ 80 | ≥ 80 | ≥ 80 | ≥ 80 | ≥ 80 | ≥ 80 | ≥ 80 | ≥ 80 | – | –
Cn1cc(C(C)(CNC(=O)c2cc(-c3ccc(F)cc3F)on2)c2cccc(Br)n2)cn1 (stereo not shown) [Compound P-24, N-[2-(6-bromo-2-pyridyl)-2-(1-methylpyrazol-4-yl)propyl]-5-(2,4-difluorophenyl) isoxazole-3-carboxamide] | ≥ 80 | ≥ 80 | ≥ 80 | ≥ 80 | ≥ 80 | ≥ 80 | ≥ 80 | ≥ 80 | ≥ 80 | ≥ 80 | – | ≥ 80 | ≥ 80 | 141 to 143
Cn1cc(C(C)(CNC(=O)c2nnc(-c3ccc(F)cc3F)s2)c2cccc(Br)n2)cn1 (stereo not shown) [Compound P-5, N-[2-(6-bromo-2-pyridyl)-2-(1-methylpyrazol-4-yl)propyl]-5-(2,4-difluorophenyl)-1,3,4-thiadiazole-2-carboxamide] | ≥ 80 | ≥ 80 | ≥ 80 | ≥ 80 | ≥ 80 | ≥ 80 | – | ≥ 80 | ≥ 80 | ≥ 80 | ≥ 80 | ≥ 80 | ≥ 80 | –
Cc1cccc(C(C)(CNC(=O)c2cc(-c3ccc(F)cc3F)on2)c2cnn(C)c2)n1 (stereo not shown) [Compound P-16, 5-(2,4-difluorophenyl)-N-[2-(1-methylpyrazol-4-yl)-2-(6-methyl-2-pyridyl)propyl] isoxazole-3-carboxamide] | – | ≥ 80 | ≥ 80 | – | ≥ 80 | ≥ 80 | ≥ 80 | ≥ 80 | ≥ 80 | ≥ 80 | ≥ 80 | ≥ 80 | ≥ 80 | –
COc1cc(Cl)nc([C@@](C)(CNC(=O)c2cc(-c3ccc(F)cc3F)no2)c2cnn(C)c2)c1 [Compound P-46, N-[(2R)-2-(6-chloro-4-methoxy-2-pyridyl)-2-(1-methylpyrazol-4-yl)propyl]-3-(2,4-difluorophenyl) isoxazole-5-carboxamide] | – | ≥ 80 | ≥ 80 | – | – | ≥ 80 | – | ≥ 80 | ≥ 80 | – | ≥ 80 | ≥ 80 | ≥ 80 | –
Cn1cc([C@](C)(CNC(=O)c2nnc(-c3ccc(F)cc3F)s2)c2cccc(Cl)n2)cn1 [Compound P-35, N-[(2R)-2-(6-chloro-2-pyridyl)-2-(1-methylpyrazol-4-yl)propyl]-5-(2,4-difluorophenyl)-1,3,4-thiadiazole-2-carboxamide] | ≥ 80 | ≥ 80 | ≥ 80 | ≥ 80 | ≥ 80 | ≥ 80 | ≥ 80 | ≥ 80 | ≥ 80 | ≥ 80 | ≥ 80 | ≥ 80 | ≥ 80 | –
Cn1cc([C@@](C)(CNC(=O)c2nnc(-c3ccc(F)cc3F)s2)c2cccc(Cl)n2)cn1 [Compound P-34, N-[(2S)-2-(6-chloro-2-pyridyl)-2-(1-methylpyrazol-4-yl)propyl]-5-(2,4-difluorophenyl)-1,3,4-thiadiazole-2-carboxamide] | ≥ 80 | ≥ 80 | ≥ 80 | ≥ 80 | ≥ 80 | ≥ 80 | ≥ 80 | ≥ 80 | ≥ 80 | ≥ 80 | ≥ 80 | ≥ 80 | – | –
